Measured values reported in US9193731B2, “Antimicrobial compounds and methods of making and using the same” (Melinta Therapeutics, Inc., priority 2009, dated 2015).

Tested on: Escherichia coli strain ATCC25922
Test: standard microdilution assay to determine minimum inhibitory concentrations (MICs)
Format: cell-based
Conditions: for E. coli ATCC25922 MIC: Escherichia coli strain ATCC25922, microdilution; for MIC: Escherichia coli, ATCC25922, Escherichia coli strain ATCC25922, microdilution, read-out: E. coli ATCC25922 MIC
Method in brief: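 E. coli strain ATCC25922 tested per CLSI microdilution methodology (about 100 microliters per well) to find minimum inhibitory concentrations. Activity scored categorically at a 16 micrograms/ml threshold.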

Compound: N[C@@H]1CCCN(Cc2ccc(-n3cc4cc(-c5ccc(S(=O)(=O)NC6CCNCC6)cc5)[nH]c4nc3=O)cc2)C1 [Compound 1120]
- E. coli ATCC25922 MIC: − (a “−” indicates that the compound has an MIC value greater than 16 micrograms/ml)

Compound: CCOCCOc1cccc(-c2cc3cn(-c4ccc(CN)cc4)c(=O)nc3[nH]2)c1 [Compound 1121]
- MIC: > 16 µg/mL

Compound: N=C(N)NCCCNCc1ccc(-n2cc3cc(-c4ccc(S(=O)(=O)NC5CNC5)cc4)[nH]c3nc2=O)cc1 [Compound 1122]
- E. coli ATCC25922 MIC: + (a “+” indicates that the compound has an MIC value of 16 micrograms/ml or less)

Compound: NCc1ccc(-n2cc3cc(-c4cccc(S(=O)(=O)N(CCOc5ccc(F)cc5)C5CCNCC5)c4)[nH]c3nc2=O)cc1 [Compound 1123]
- MIC: > 16 µg/mL

Compound: N=C(N)NCCCNC(=O)c1ccc(-n2cc3cc(-c4cccc(S(=O)(=O)N(CCCn5ccc(C(F)(F)F)n5)C5CCNCC5)c4)[nH]c3nc2=O)cc1 [Compound 1124]
- E. coli ATCC25922 MIC: − (a “−” indicates that the compound has an MIC value greater than 16 micrograms/ml)

Compound: Cc1ccn(CCCN(C2CCNCC2)S(=O)(=O)c2cccc(-c3cc4cn(-c5ccc(C(N)=O)cc5)c(=O)nc4[nH]3)c2)n1 [Compound 1126]
- MIC: > 16 µg/mL

Compound: NCc1ccc(-n2cc3cc(-c4cccc(OCCOc5ccc(Cl)cc5)c4)[nH]c3nc2=O)cc1 [Compound 1127]
- MIC: > 16 µg/mL

Compound: NCc1ccc(-n2cc3cc(-c4cccc(OCCCc5ccc(Cl)cc5)c4)[nH]c3nc2=O)cc1 [Compound 1128]
- MIC: > 16 µg/mL

Compound: CNCCOc1ccccc1-c1cc2cn(-c3ccc(CN)cc3)c(=O)nc2[nH]1 [Compound 1129]
- MIC: > 16 µg/mL

Compound: N=C(N)NCCCNCc1ccc(-n2cc3cc(-c4ccc(S(=O)(=O)CCN)cc4)[nH]c3nc2=O)cc1 [Compound 1130]
- E. coli ATCC25922 MIC: + (a “+” indicates that the compound has an MIC value of 16 micrograms/ml or less)

Compound: CCOCCOc1ccccc1-c1cc2cn(-c3ccc(CN)cc3)c(=O)nc2[nH]1 [Compound 1131]
- MIC: > 16 µg/mL

Compound: Nc1nccc(CCCNCc2ccc(-n3cc4cc(-c5ccc(S(=O)(=O)NC6CCNCC6)cc5)[nH]c4nc3=O)cc2)n1 [Compound 1132]
- E. coli ATCC25922 MIC: − (a “−” indicates that the compound has an MIC value greater than 16 micrograms/ml)

Compound: NOCCNC(=O)c1ccc(-n2cc3cc(-c4ccc(S(=O)(=O)NC5CCNCC5)cc4)[nH]c3nc2=O)cc1 [Compound 1136]
- MIC: > 16 µg/mL

Compound: N=C(N)NOCCNC(=O)c1ccc(-n2cc3cc(-c4ccc(S(=O)(=O)NC5CCNCC5)cc4)[nH]c3nc2=O)cc1 [Compound 1137]
- E. coli ATCC25922 MIC: − (a “−” indicates that the compound has an MIC value greater than 16 micrograms/ml)

Compound: N=C(N)N[C@@H]1CCN(Cc2ccc(-n3cc4cc[nH]c4nc3=O)cc2)C1 [Compound 1140]
- MIC: > 16 µg/mL

Compound: O=c1nc2[nH]c(-c3ccc(S(=O)(=O)NC4CCNCC4)cc3)cc2cn1-c1cccc(OCC2CCNCC2)c1 [Compound 1141]
- MIC: > 16 µg/mL

Compound: NCc1ccc(-n2cc3cc(-c4cccc(OCCNC(N)=O)c4)[nH]c3nc2=O)cc1 [Compound 1142]
- MIC: > 16 µg/mL

Compound: CC(=O)NCCOc1cccc(-c2cc3cn(-c4ccc(CN)cc4)c(=O)nc3[nH]2)c1 [Compound 1143]
- MIC: > 16 µg/mL

Compound: NCCOc1cccc(-c2cc3cn(-c4ccc(CN)cc4)c(=O)nc3[nH]2)c1 [Compound 1144]
- MIC: > 16 µg/mL

Compound: O=c1nc2[nH]c(-c3ccc(S(=O)(=O)NC4CCNCC4)cc3)cc2cn1-c1cccc(OC2CCNC2)c1 (centres unmarked) [Compound 1148]
- MIC: > 16 µg/mL

Compound: NCC(O)Cn1cc2cc(-c3ccc(S(=O)(=O)NC4CCNCC4)cc3)[nH]c2nc1=O (centres unmarked) [Compound 1149]
- MIC: > 16 µg/mL

Compound: N=C(N)CCCOc1cccc(-c2cc3cn(-c4ccc(CN)cc4)c(=O)nc3[nH]2)c1 [Compound 1150]
- MIC: > 16 µg/mL

Compound: N#CCCCOc1cccc(-c2cc3cn(-c4ccc(CN)cc4)c(=O)nc3[nH]2)c1 [Compound 1151]
- MIC: > 16 µg/mL

Compound: CN1CCN(CCOc2cc(-n3cc4cc(-c5ccc(S(=O)(=O)NC6CCNCC6)cc5)[nH]c4nc3=O)ccc2C(=O)NCCCNC(=N)N)CC1 [Compound 1152]
- E. coli ATCC25922 MIC: − (a “−” indicates that the compound has an MIC value greater than 16 micrograms/ml)

Compound: CS(=O)(=O)NCc1cc2cn(-c3ccc(CNCCCNC(=N)N)cc3)c(=O)nc2[nH]1 [Compound 1153]
- MIC: > 16 µg/mL

Compound: N=C(N)NCCCNCc1ccc(-n2cc3cc(-c4ccc(S(=O)(=O)[C@H]5CCNC5)cc4)[nH]c3nc2=O)cc1 [Compound 1154]
- MIC: < 16 µg/mL

Compound: N=C(N)N[C@H]1CCCN(Cc2ccc(-n3cc4cc[nH]c4nc3=O)cc2)C1 [Compound 1155]
- MIC: > 16 µg/mL

Compound: N[C@H]1CCCN(Cc2ccc(-n3cc4cc[nH]c4nc3=O)cc2)C1 [Compound 1156]
- MIC: > 16 µg/mL

Compound: NCc1ccc(-n2cc3cc(-c4cccc(S(=O)(=O)N(CCn5ccnc5)C5CCNCC5)c4)[nH]c3nc2=O)cc1 [Compound 1157]
- MIC: > 16 µg/mL

Compound: COCCOCCN(C1CCNCC1)S(=O)(=O)c1cccc(-c2cc3cn(-c4ccc(CN)cc4)c(=O)nc3[nH]2)c1 [Compound 1158]
- MIC: > 16 µg/mL

Compound: N=C(N)NCCCNCc1ccc(-n2cc3cc(-c4cccc(S(=O)(=O)N(CCn5ccnc5)C5CCNCC5)c4)[nH]c3nc2=O)cc1 [Compound 1159]
- MIC: < 16 µg/mL

Compound: NCc1ccc(-n2cc3cc(-c4cccc(S(=O)(=O)N(CCc5ccc(F)cc5)C5CCNCC5)c4)[nH]c3nc2=O)cc1 [Compound 1160]
- MIC: > 16 µg/mL

Compound: COCCOCCN(C1CCNCC1)S(=O)(=O)c1cccc(-c2cc3cn(-c4ccc(CNCCCNC(=N)N)cc4)c(=O)nc3[nH]2)c1 [Compound 1161]
- E. coli ATCC25922 MIC: + (a “+” indicates that the compound has an MIC value of 16 micrograms/ml or less)

Compound: N=C(N)NCCCNCc1ccc(-n2cc3cc(-c4cccc(OCCCN5CCNCC5)c4)[nH]c3nc2=O)cc1 [Compound 1162]
- MIC: < 16 µg/mL

Compound: N=C(N)NCCC(=O)NCc1ccc(-n2cc3cc(-c4ccc(C[C@H](N)CO)cc4)[nH]c3nc2=O)cc1 [Compound 1163]
- MIC: < 16 µg/mL

Compound: N=C(N)NCCCNC(=O)c1ccc(-n2cc3cc(-c4ccc(C[C@H](N)CO)cc4)[nH]c3nc2=O)cc1 [Compound 1164]
- MIC: < 16 µg/mL

Compound: O=c1nc2[nH]c(-c3ccc(S(=O)(=O)NC4CCNCC4)cc3)cc2cn1-c1ccccc1OCC1CCNCC1 [Compound 1165]
- MIC: > 16 µg/mL

Compound: N=C(N)NCCCNCc1ccc(-n2cc3cc(-c4ccccc4OCCCN4CCNCC4)[nH]c3nc2=O)cc1 [Compound 1166]
- MIC: > 16 µg/mL

Compound: CN(C)CCOc1ccccc1-c1cc2cn(-c3ccc(CNCCCNC(=N)N)cc3)c(=O)nc2[nH]1 [Compound 1167]
- MIC: > 16 µg/mL

Compound: NCc1ccc(-n2cc3cc(-c4cccc(OCCF)c4)[nH]c3nc2=O)cc1 [Compound 1168]
- MIC: > 16 µg/mL

Compound: N=C(N)NCCCNCc1ccc(-n2cc3cc(-c4ccc(S(=O)(=O)C[C@@H](O)CN5CCCCC5)cc4)[nH]c3nc2=O)cc1 [Compound 1171]
- E. coli ATCC25922 MIC: + (a “+” indicates that the compound has an MIC value of 16 micrograms/ml or less)

Compound: N=C(N)NCCCNCc1ccc(-n2cc3cc(-c4cccc(S(=O)(=O)N(CCc5ccc(F)cc5)C5CCNCC5)c4)[nH]c3nc2=O)cc1 [Compound 1172]
- E. coli ATCC25922 MIC: + (a “+” indicates that the compound has an MIC value of 16 micrograms/ml or less)

Compound: N=C(N)NC(=O)CCNCc1ccc(-n2cc3cc(-c4ccc(S(=O)(=O)NC5CCNCC5)cc4)[nH]c3nc2=O)cc1 [Compound 1173]
- E. coli ATCC25922 MIC: − (a “−” indicates that the compound has an MIC value greater than 16 micrograms/ml)

Compound: NCc1ccc(-n2cc3cc(-c4cccc(S(=O)(=O)N(CCn5cccn5)C5CCNCC5)c4)[nH]c3nc2=O)cc1 [Compound 1174]
- MIC: > 16 µg/mL
